Molecules are shown by their SMILES. Bounds are passed on as bounds.

The target of the first assay is F508del-CFTR (Homo sapiens (Human), UniProt P13569, DEL508-508). Description: Membrane potential optical (fluorescent voltage sensing dye, FLIPR III) HTS assay for F508del-CFTR modulators. The class given is cell-based. The following applies: F508del NIH 3T3 cells, assay 5A-A1; read-out: CFTRdF508 EC50. From the text: Membrane Potential Optical Methods for Assaying Properties of F508del-CFTR Modulators
Sequence of F508del-CFTR (P13569 other isoform, or with tags, fused parts or gaps del F508-F508): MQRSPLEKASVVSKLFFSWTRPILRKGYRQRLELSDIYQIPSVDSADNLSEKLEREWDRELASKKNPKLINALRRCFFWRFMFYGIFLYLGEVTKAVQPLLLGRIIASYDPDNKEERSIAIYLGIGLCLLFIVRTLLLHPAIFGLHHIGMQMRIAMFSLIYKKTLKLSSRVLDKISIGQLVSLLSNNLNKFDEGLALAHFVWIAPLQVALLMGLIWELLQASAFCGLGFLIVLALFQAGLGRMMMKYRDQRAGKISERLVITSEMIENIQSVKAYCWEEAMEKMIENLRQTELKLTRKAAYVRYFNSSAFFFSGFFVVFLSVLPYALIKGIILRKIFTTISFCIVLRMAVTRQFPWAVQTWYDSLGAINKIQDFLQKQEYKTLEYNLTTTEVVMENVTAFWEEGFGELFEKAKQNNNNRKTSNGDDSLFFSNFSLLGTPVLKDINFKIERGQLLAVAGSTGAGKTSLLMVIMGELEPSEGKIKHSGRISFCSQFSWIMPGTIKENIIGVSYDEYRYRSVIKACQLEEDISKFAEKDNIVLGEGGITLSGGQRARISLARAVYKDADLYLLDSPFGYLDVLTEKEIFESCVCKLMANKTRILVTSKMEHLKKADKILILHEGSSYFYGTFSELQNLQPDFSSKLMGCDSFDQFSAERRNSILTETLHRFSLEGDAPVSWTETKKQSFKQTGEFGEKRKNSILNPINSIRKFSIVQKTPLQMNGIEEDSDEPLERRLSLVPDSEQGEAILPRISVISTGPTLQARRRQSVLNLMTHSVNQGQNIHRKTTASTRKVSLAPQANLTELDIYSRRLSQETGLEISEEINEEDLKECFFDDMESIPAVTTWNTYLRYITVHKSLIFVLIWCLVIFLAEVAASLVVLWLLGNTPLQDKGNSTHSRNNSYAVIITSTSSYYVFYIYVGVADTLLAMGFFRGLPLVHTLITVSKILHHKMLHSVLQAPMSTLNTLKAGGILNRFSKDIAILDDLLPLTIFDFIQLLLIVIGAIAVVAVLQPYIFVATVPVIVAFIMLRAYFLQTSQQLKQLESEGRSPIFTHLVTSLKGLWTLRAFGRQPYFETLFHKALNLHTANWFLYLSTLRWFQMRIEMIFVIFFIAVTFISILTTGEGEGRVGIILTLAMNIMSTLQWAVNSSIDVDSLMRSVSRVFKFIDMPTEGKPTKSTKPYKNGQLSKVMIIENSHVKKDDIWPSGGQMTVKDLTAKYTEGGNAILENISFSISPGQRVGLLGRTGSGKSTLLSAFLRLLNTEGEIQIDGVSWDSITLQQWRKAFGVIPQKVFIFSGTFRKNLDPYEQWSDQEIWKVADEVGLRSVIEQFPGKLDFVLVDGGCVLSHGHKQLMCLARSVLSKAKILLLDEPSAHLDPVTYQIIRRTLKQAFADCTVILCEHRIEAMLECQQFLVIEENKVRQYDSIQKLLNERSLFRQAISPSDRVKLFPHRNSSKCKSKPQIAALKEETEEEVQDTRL
The assay utilizes fluorescent voltage sensing dyes to measure changes in membrane potential using a fluorescent plate reader (e.g., FLIPR III, Molecular Devices, Inc.) as a readout for increase in functional F508del in NIH 3T3 cells.
5A-A1. Identification of F508Del-CFTR Modulators
To identify modulators of F508del, a fluorescence based HTS assay format was developed. This HTS assay utilizes fluorescent voltage sensing dyes to measure changes in membrane potential on the FLIPR III as a measurement for increase in gating (conductance) of F508del NIH 3T3 cells.
(in mM) NaCl 160, KCl 4.5, CaCl2 2, MgCl2 1, HEPES 10, pH 7.4 with NaOH, Glucose 10.
Chloride salts in Bath Solution #1 (above) are substituted with gluconate salts.
NIH3T3 mouse fibroblasts stably expressing F508del are used for optical measurements of membrane potential. The cells are maintained at 37° C. in 5% CO2 and 90% humidity in Dulbecco's modified Eagle's medium supplemented with 2 mM glutamine, 10% fetal bovine serum, 1×NEAA, β-ME, 1×pen/strep, and 25 mM HEPES in 175 cm^2 culture flasks. For all optical assays, the cells were seeded at 12,000 cells/well in 384-well matrigel-coated plates and cultured for 18-24 hrs at 37° C. for the potentiator assay. For the correction assays, the cells are cultured at 37° C. with and without compounds for 18-24 hours.
Consider `C[C@@H]1CN(c2nc(-n3ccc(O[C@@H]4C[C@@H]4C(F)(F)F)n3)ccc2C(=O)NS(=O)(=O)c2ccccc2)C(C)(C)C1` (racemic) [Compound 18, N-(Benzenesulfonyl)-6-[3-[(cis)-2-(trifluoromethyl)cyclopropoxy]pyrazol-1-yl]-2-[(4S)-2,2,4-trimethylpyrrolidin-1-yl]pyridine-3-carboxamide], for which the concentration giving a half-maximal response (EC50) was in the range of 100 to 1000 nM.

As to `C[C@@H]1CN(c2nc(-n3ccc(O[C@@H]4C[C@H]4C(F)(F)F)n3)ccc2C(=O)NS(=O)(=O)c2ccccc2)C(C)(C)C1` (racemic) [Compound 19, N-(Benzenesulfonyl)-6-[3-[(trans)-2-(trifluoromethyl)cyclopropoxy]pyrazol-1-yl]-2-[(4S)-2,2,4-trimethylpyrrolidin-1-yl]pyridine-3-carboxamide], the EC50 is 100 to 1000 nM. Still for that read-out and setting: under `C[C@@H]1CN(c2nc(-n3ccc(OCC4(C(F)(F)F)CC4)n3)ccc2C(=O)NS(=N)(=O)c2ccccc2)C(C)(C)C1` (single isomer, unassigned) [Compound 46] stands below 100 nM; under `C[C@H]1CN(c2nc(-n3ccc(OCCC4(C(F)(F)F)CC4)n3)ccc2C(=O)NS(=O)(=O)c2ccccc2)C(C)(C)C1` [Compound 2, (R)—N-(Phenylsulfonyl)-6-(3-(2-(1-(trifluoromethyl)cyclopropyl)ethoxy)-1H-pyrazol-1-yl)-2-(2,2,4-trimethylpyrrolidin-1-yl)nicotinamide], 100 to 1000 nM. Take `COc1cc(S(=O)(=O)NC(=O)c2ccc(-n3ccc(OCCC4(C(F)(F)F)CC4)n3)nc2N2C[C@@H](C)CC2(C)C)ccc1O` [Compound 3, (S)—N-((4-Hydroxy-3-methoxyphenyl)sulfonyl)-6-(3-(2-(1-(trifluoromethyl)cyclopropyl)ethoxy)-1H-pyrazol-1-yl)-2-(2,2,4-trimethylpyrrolidin-1-yl)nicotinamide]: the EC50 was below 100 nM. `Cc1ccccc1S(=O)(=O)NC(=O)c1ccc(-n2ccc(OCC3C4(CC4)C34CC4)n2)nc1N1C[C@@H](C)CC1(C)C` [Compound 8, 6-[3-(Dispiro[2.0.2^4.1^3]heptan-7-ylmethoxy)pyrazol-1-yl]-N-(o-tolylsulfonyl)-2-[(4S)-2,2,4-trimethylpyrrolidin-1-yl]pyridine-3-carboxamide]: the EC50 is below 100 nM. Same read-out and setting: under `CC1(C)CC(CO)CN1c1nc(-n2ccc(OCCC3(C(F)(F)F)CC3)n2)ccc1C(=O)NS(=O)(=O)c1ccccc1` (centres unmarked) [Compound 9, N-(Benzenesulfonyl)-2-[4-(hydroxymethyl)-2,2-dimethyl-pyrrolidin-1-yl]-6-[3-[2-[1-(trifluoromethyl)cyclopropyl]ethoxy]pyrazol-1-yl]pyridine-3-carboxamide] stands 100 to 1000 nM; under `Cc1cc(C#N)ccc1S(=O)(=O)NC(=O)c1ccc(-n2ccc(OCC3(C(F)(F)F)CC3)n2)nc1N1C[C@@H](C)CC1(C)C` [Compound 11, N-(4-Cyano-2-methyl-phenyl)sulfonyl-6-[3-[[1-(trifluoromethyl)cyclopropyl]methoxy]pyrazol-1-yl]-2-[(4S)-2,2,4-trimethylpyrrolidin-1-yl]pyridine-3-carboxamide], 100 to 1000 nM; under `COc1cc(C)ccc1S(=O)(=O)NC(=O)c1ccc(-n2ccc(OCC3(C(F)(F)F)CC3)n2)nc1N1C[C@@H](C)CC1(C)C` [Compound 12, N-(2-Methoxy-4-methyl-phenyl)sulfonyl-6-[3-[[1-(trifluoromethyl)cyclopropyl]methoxy]pyrazol-1-yl]-2-[(4S)-2,2,4-trimethylpyrrolidin-1-yl]pyridine-3-carboxamide], below 100 nM.

Turning to `[2H]C([2H])([2H])[C@@H]1CN(c2nc(-n3ccc(OCCC4(C(F)(F)F)CC4)n3)ccc2C(=O)NS(=O)(=O)c2ccccc2)C(C)(C)C1([2H])[2H]` [Compound 17, N-(Benzenesulfonyl)-2-[(4S)-3,3-dideuterio-2,2-dimethyl-4-(trideuteriomethyl)pyrrolidin-1-yl]-6-[3-[2-[1-(trifluoromethyl)cyclopropyl]ethoxy]pyrazol-1-yl]pyridine-3-carboxamide], the concentration for a half-maximal effect (EC50) was below 100 nM. The same measure, in the same setting: the figure for `C[C@@H]1CN(c2nc(-n3ccc(OCC4(C(F)(F)F)CC4)n3)ccc2C(=O)NS(=O)(=O)c2ccccc2O)C(C)(C)C1` [Compound 20, N-(2-Hydroxyphenyl)sulfonyl-6-[3-[[1-(trifluoromethyl)cyclopropyl]methoxy]pyrazol-1-yl]-2-[(4S)-2,2,4-trimethylpyrrolidin-1-yl]pyridine-3-carboxamide] is 100 to 1000 nM. `C[C@@H]1CN(c2nc(-n3ccc(OCC4(C(F)(F)F)CC4)n3)ccc2C(=O)NS(=O)(=O)c2cccc(O)c2)C(C)(C)C1` [Compound 21, N-(3-Hydroxyphenyl)sulfonyl-6-[3-[[1-(trifluoromethyl)cyclopropyl]methoxy]pyrazol-1-yl]-2-[(4S)-2,2,4-trimethylpyrrolidin-1-yl]pyridine-3-carboxamide]: the EC50 was below 100 nM. Still for that read-out and setting: under `C[C@@H]1CN(c2nc(-n3ccc(OCC4(C(F)(F)F)CC4)n3)ccc2C(=O)NS(=O)(=O)c2cccc(C#N)c2)C(C)(C)C1` [Compound 25, N-(3-Cyanophenyl)sulfonyl-6-[3-[[1-(trifluoromethyl)cyclopropyl]methoxy]pyrazol-1-yl]-2-[(4S)-2,2,4-trimethylpyrrolidin-1-yl]pyridine-3-carboxamide] stands below 100 nM.

With `C[C@@H]1CN(c2nc(-n3ccc(OCC4(C(F)(F)F)CC4)n3)ccc2C(=O)NS(=O)(=O)c2ccccc2C#N)C(C)(C)C1` [Compound 26, N-(2-Cyanophenyl)sulfonyl-6-[3-[[1-(trifluoromethyl)cyclopropyl]methoxy]pyrazol-1-yl]-2-[(4S)-2,2,4-trimethylpyrrolidin-1-yl]pyridine-3-carboxamide], the concentration for a half-maximal effect (EC50) was above 1000 nM.

For the compound `C[C@@H]1CN(c2nc(-n3ccc(OCCC4(C(F)(F)F)CC4)n3)ccc2C(=O)NS(=O)(=O)c2ccccc2O)C(C)(C)C1` [Compound 34, N-(2-hydroxyphenyl)sulfonyl-6-[3-[2-[1-(trifluoromethyl)cyclopropyl]ethoxy]pyrazol-1-yl]-2-[(4S)-2,2,4-trimethylpyrrolidin-1-yl]pyridine-3-carboxamide], the EC50 was below 100 nM. On the same count and under the same terms, the figure for `C[C@@H]1CN(c2nc(-n3ccc(OCCC4(C(F)(F)F)CC4)n3)ccc2C(=O)NS(=O)(=O)c2cccc(O)c2)C(C)(C)C1` [Compound 35, N-(3-Hydroxyphenyl)sulfonyl-6-[3-[2-[1-(trifluoromethyl)cyclopropyl]ethoxy]pyrazol-1-yl]-2-[(4S)-2,2,4-trimethylpyrrolidin-1-yl]pyridine-3-carboxamide] is below 100 nM. Still for that read-out and setting: under `[2H]C([2H])(Oc1ccn(-c2ccc(C(=O)NS(=O)(=O)c3ccccc3)c(N3C[C@@H](C)CC3(C)C)n2)n1)C1C(C)(C)C1(C)C` [Compound 36, N-(Benzenesulfonyl)-6-[3-[dideuterio-(2,2,3,3-tetramethylcyclopropyl)methoxy]pyrazol-1-yl]-2-[(4S)-2,2,4-trimethylpyrrolidin-1-yl]pyridine-3-carboxamide] stands below 100 nM; under `C[C@@H]1CN(c2nc(-n3ccc(OCC(O)C4(C(F)(F)F)CC4)n3)ccc2C(=O)NS(=O)(=O)c2ccccc2)C(C)(C)C1` (stereo partly drawn) [Compound 38, N-(Benzenesulfonyl)-6-[3-[2-hydroxy-2-[1-(trifluoromethyl)cyclopropyl]ethoxy]pyrazol-1-yl]-2-[(4S)-2,2,4-trimethylpyrrolidin-1-yl]pyridine-3-carboxamide], 100 to 1000 nM.

The same assay, now with this note: Table 7, Compound 1 and metabolites; read-out: CFTRdF508 EC50.
Turning to `C[C@@H]1CN(c2nc(-n3ccc(OCCC4(C(F)(F)F)CC4)n3)ccc2C(=O)NS(=O)(=O)c2ccccc2O)C(C)(C)C1` [Compound 34, N-(2-hydroxyphenyl)sulfonyl-6-[3-[2-[1-(trifluoromethyl)cyclopropyl]ethoxy]pyrazol-1-yl]-2-[(4S)-2,2,4-trimethylpyrrolidin-1-yl]pyridine-3-carboxamide], the EC50 was 90 nM. On to `C[C@@H]1CN(c2nc(-n3ccc(OCC(O)C4(C(F)(F)F)CC4)n3)ccc2C(=O)NS(=O)(=O)c2ccccc2)C(C)(C)C1` (stereo partly drawn) [Compound 38, N-(Benzenesulfonyl)-6-[3-[2-hydroxy-2-[1-(trifluoromethyl)cyclopropyl]ethoxy]pyrazol-1-yl]-2-[(4S)-2,2,4-trimethylpyrrolidin-1-yl]pyridine-3-carboxamide], for which the EC50 came to 240 nM.

In general, EC50 refers to the concentration at which the effect is half-maximal.
